{"source": "ChEMBL document CHEMBL1147522", "about": "“1,2,3,4-tetrahydrocarbazoles as 5-HT6 serotonin receptor ligands” (Bioorg Med Chem Lett, 2004)", "data": [{"target": "5-hydroxytryptamine receptor 6 (Homo sapiens, UniProt P50406)", "sequence (P50406 whole entry)": "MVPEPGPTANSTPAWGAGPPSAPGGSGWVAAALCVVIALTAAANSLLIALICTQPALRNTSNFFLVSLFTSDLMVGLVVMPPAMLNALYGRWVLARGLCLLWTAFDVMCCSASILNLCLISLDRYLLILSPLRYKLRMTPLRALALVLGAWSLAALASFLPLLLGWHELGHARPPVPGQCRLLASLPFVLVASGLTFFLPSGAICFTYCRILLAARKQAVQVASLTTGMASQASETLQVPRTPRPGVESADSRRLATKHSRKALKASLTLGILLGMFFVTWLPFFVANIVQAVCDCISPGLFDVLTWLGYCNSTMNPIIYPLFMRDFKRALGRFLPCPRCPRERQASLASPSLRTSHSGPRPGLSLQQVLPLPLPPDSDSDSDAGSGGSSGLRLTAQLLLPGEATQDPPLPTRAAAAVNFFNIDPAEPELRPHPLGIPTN", "assay": "Ability to displace [3H]LSD from human 5-hydroxytryptamine 6 receptor transiently expressed in COS-7 cells", "format": "cell-based", "units": {"Ki": "nM"}, "values": [{"smiles": "COc1ccc2c(c1)c1c(n2S(=O)(=O)c2ccc(N)cc2)CCCC1", "Ki": 29}, {"smiles": "COc1ccc2c(c1)c1c(n2S(=O)(=O)c2ccc(N)cc2)CCCC1CN(C)C", "note": "(stereo unspecified)", "Ki": 2}, {"smiles": "COc1ccc2c(c1)c1c(n2S(=O)(=O)c2ccc3ccccc3c2)CCCC1CN(C)C", "note": "(stereo unspecified)", "Ki": 5.1}, {"smiles": "COc1ccc2c(c1)c1c(n2C(=O)c2ccc(N)cc2)CCCC1", "Ki": 6000}, {"smiles": "COc1ccc2c(c1)c1c(n2S(=O)(=O)c2ccc(C)cc2)CCCC1CN(C)C", "note": "(stereo unspecified)", "Ki": 9.4}, {"smiles": "Nc1ccc(S(=O)(=O)n2c3ccccc3c3ccccc32)cc1", "Ki": 49}, {"smiles": "COc1ccc(OC)c(S(=O)(=O)n2c3c(c4cc(OC)ccc42)C(CN(C)C)CCC3)c1", "note": "(stereo unspecified)", "Ki": 0.3}, {"smiles": "COc1ccc2c(c1)c1c(n2S(=O)(=O)c2ccc(I)cc2)CCCC1CN(C)C", "note": "(stereo unspecified)", "Ki": 2.4}, {"smiles": "COc1ccc2c(c1)c1c(n2S(=O)(=O)Cc2ccccc2)CCCC1CN(C)C", "note": "(stereo unspecified)", "Ki": 200}, {"smiles": "COc1ccc(S(=O)(=O)n2c3c(c4cc(OC)ccc42)C(CN(C)C)CCC3)cc1", "note": "(stereo unspecified)", "Ki": 47}, {"smiles": "COc1ccc2c(c1)c1c(n2S(=O)(=O)c2ccc(Cl)cc2)CCCC1CN(C)C", "note": "(stereo unspecified)", "Ki": 5}, {"smiles": "COc1ccc2c(c1)c1c(n2Cc2ccc(N)cc2)CCCC1", "Ki": 6000}, {"smiles": "COc1ccc2c(c1)c1c(n2S(=O)(=O)c2cccc3cccnc23)CCCC1CN(C)C", "note": "(stereo unspecified)", "Ki": 7.6}, {"smiles": "COc1ccc2c(c1)c1c(n2S(=O)(=O)c2cccc3ccccc23)CCCC1CN(C)C", "note": "(stereo unspecified)", "Ki": 14}, {"smiles": "CN(C)CC1CCCc2c1c1ccccc1n2Cc1ccccc1", "note": "(stereo unspecified)", "Ki": 64}, {"smiles": "COc1ccc2c(c1)c1c(n2S(=O)(=O)c2ccccc2)CCCC1CN(C)C", "note": "(stereo unspecified)", "Ki": 2.3}]}]}
